Experimental data published in the NIST ThermoML archive (doi:10.1016/j.jct.2011.12.008).

Legend:
[1] = 101.33 kPa, Liquid; for viscosity: Capillary tube (Ostwald / Ubbelohde) method; for mass density: Vibrating tube method
[2] = xn = mol fraction of the nth substance listed; details: 101 kPa, Liquid; for viscosity: Capillary tube (Ostwald / Ubbelohde) method; for mass density: Vibrating tube method

CCCCCCn1cc[n+](C)c1.F[B-](F)(F)F [1-hexyl-3-methylimidazolium tetrafluoroborate]
[1]
Details | mass density [kg/m3] | viscosity [mPa·s]
293.15 K | 1149.05 | 234.68
298.15 K | 1145.61 | 178.92
303.15 K | 1142.3 | 136.15
308.15 K | 1138.95 | 106.65
313.15 K | 1135.59 | 83.13
318.15 K | 1132.22 | 69.13
323.15 K | 1128.88 | 56.74
328.15 K | 1125.5 | 48.36
333.15 K | 1122.14 | 43.01
338.15 K | 1118.8 | 37.15

CCCCCCn1cc[n+](C)c1.F[B-](F)(F)F [1-hexyl-3-methylimidazolium tetrafluoroborate] + NCCCO
[2], x1 = 1
Details | mass density [kg/m3] | viscosity [mPa·s]
293.15 K | 1149.05 | 234.68
298.15 K | 1145.61 | 178.92
303.15 K | 1142.3 | 136.15
308.15 K | 1138.95 | 106.65
313.15 K | 1135.59 | 83.13
318.15 K | 1132.22 | 69.13
323.15 K | 1128.88 | 56.74
328.15 K | 1125.5 | 48.36
333.15 K | 1122.14 | 43.01
338.15 K | 1118.8 | 37.15

CC(C)CO [2-methyl-1-propanol]
[1]
Details | mass density [kg/m3] | viscosity [mPa·s]
293.15 K | 801.75 | 4.085
298.15 K | 797.89 | 3.45
303.15 K | 793.99 | 2.877
308.15 K | 790.04 | 2.385
313.15 K | 786.04 | 2.091
318.15 K | 781.98 | 1.85
323.15 K | 777.85 | 1.576
328.15 K | 773.65 | 1.297
333.15 K | 769.36 | 1.124
338.15 K | 764.99 | 0.9876

CC(C)CO [2-methyl-1-propanol] + CCCCCCn1cc[n+](C)c1.F[B-](F)(F)F
[2], x2 = 0
Details | mass density [kg/m3] | viscosity [mPa·s]
293.15 K | 801.75 | 4.085
298.15 K | 797.89 | 3.45
303.15 K | 793.99 | 2.877
308.15 K | 790.04 | 2.385
313.15 K | 786.04 | 2.091
318.15 K | 781.98 | 1.85
323.15 K | 777.85 | 1.576
328.15 K | 773.65 | 1.297
333.15 K | 769.36 | 1.124
338.15 K | 764.99 | 0.9876

NCCCO [3-amino-1-propanol]
[1]
Details | mass density [kg/m3] | viscosity [mPa·s]
293.15 K | 987.55 | 39.29
298.15 K | 983.55 | 30.43
303.15 K | 979.53 | 23.87
308.15 K | 975.51 | 19.07
313.15 K | 971.47 | 15.27
318.15 K | 967.43 | 12.35
323.15 K | 963.37 | 10.22
328.15 K | 959.3 | 8.535
333.15 K | 955.22 | 7.123
338.15 K | 951.14 | 6.045
